Each structure is given as a SMILES string.

The results in this text go back to ChEMBL document CHEMBL3286355, “New Hits as Antagonists of GPR103 Identified by HTS” (ACS Med Chem Lett, 2014).

The target in one data set is T1, Pyroglutamylated RF-amide peptide receptor (Homo sapiens, UniProt Q96P65).
T1 sequence (Q96P65 whole entry): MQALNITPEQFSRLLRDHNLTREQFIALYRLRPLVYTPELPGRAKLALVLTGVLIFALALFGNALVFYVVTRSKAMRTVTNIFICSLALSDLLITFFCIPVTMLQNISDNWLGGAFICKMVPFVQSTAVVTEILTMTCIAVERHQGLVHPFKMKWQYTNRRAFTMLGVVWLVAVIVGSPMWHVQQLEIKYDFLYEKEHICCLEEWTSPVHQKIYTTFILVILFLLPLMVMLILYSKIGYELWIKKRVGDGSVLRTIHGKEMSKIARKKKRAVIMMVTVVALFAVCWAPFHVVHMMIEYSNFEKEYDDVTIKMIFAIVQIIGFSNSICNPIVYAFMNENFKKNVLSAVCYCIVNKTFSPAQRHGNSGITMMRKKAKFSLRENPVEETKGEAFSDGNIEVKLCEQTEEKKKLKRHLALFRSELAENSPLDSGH
In words: Displacement of [125I]-QRFP43 from human GPR103 receptor overexpressed in HEK membranes after 90 mins by liquid scintillation counting.
Details: not given
It counts as cell membranes.
Usually IC50 stands for the point on the concentration scale where inhibition reaches its midpoint. For `N=C(Nc1ccc(F)c(CSC2CCCC2)c1)c1cccs1`, the IC50 was 1260 nM.
On the same count and under the same terms, the same measure for `COc1ccc(Nc2ccccn2)cc1CSC1CCCC1`: over 31600 nM.
Same read-out and setting: then `Cc1cc2nc(NC(=N)N)nc(C)c2cc1C`, with 5010 nM.
Same read-out and setting: then `COc1ccc(Cl)cc1NS(=O)(=O)c1ccc(OC)c2c1CC[C@@H](N(C)C)C2`, with 79.4 nM; and `N=C(Nc1cccc(CSC2CCCC2)c1)c1cccs1`, with 2510 nM; and `C/N=C(/Nc1ccc(OC)c(CSC2CCCC2)c1)c1cccs1`, with 631 nM.
Consider `COc1ccc(NC(=N)c2ccccc2)cc1CCC1CCCC1`, for which the IC50 was 200 nM.
`COc1ccc(NC(=O)c2cccs2)cc1CSC1CCCC1` showed an IC50 of over 31600 nM.
Still for that read-out and setting: then `COc1ccc(NC(=N)c2nccs2)cc1CSC1CCCC1`, with 25100 nM; and `COc1ccc(NC(=N)c2cccs2)cc1COC1CCCC1`, with 10000 nM; and `COc1ccc(NC(=N)c2ccsc2)cc1CSC1CCCC1`, with 126 nM.
Same read-out and setting: then `COc1ccc(NC(=N)c2ccccc2)cc1CNC(=O)C1CCCC1`, with 7940 nM; and `COc1ccc(NC(=N)c2ccc(Cl)cc2)cc1CSC1CCCC1`, with 39.8 nM; and `COc1ccc(NC(=N)c2ccc(Br)s2)cc1CSC1CCCC1`, with 126 nM.
The same measure, in the same setting: then `COc1ccc(NC(=N)c2cc(C)cs2)cc1CSC1CCCC1`, with 100 nM; and `Cc1ccc(NC(=N)c2cccs2)cc1CSC1CCCC1`, with 10000 nM; and `COc1ccc(NC(=N)c2cccs2)cc1CSC1CCCC1`, with 158 nM.
Molecule `COc1ccc(NC(=N)c2ccccc2)cc1CSc1ccccc1` had an IC50 of 7940 nM.
Same read-out and setting: the same measure for `N=C(Nc1ccc(Cl)c(CSC2CCCC2)c1)c1cccs1`: 3980 nM; for `COc1ccc(C(=N)Nc2ccccc2)cc1CSC1CCCC1`: 3980 nM.
`COc1ccc(NC(=N)c2cccnc2)cc1CSC1CCCC1` gave an IC50 of 501 nM.
`COc1ccc(NC(=N)c2ccccc2)cc1CSC1CCCC1` showed an IC50 of 25.1 nM.

In the next data set the target is T1, Pyroglutamylated RF-amide peptide receptor. Briefly: Antagonist activity at human GPR103 receptor assessed as inhibition of inositol-1-phosphate production by cell-based assay. In kind it is functional.
Details: not given
On to `N=C(Nc1ccc(F)c(CSC2CCCC2)c1)c1cccs1`, for which the IC50 is 501 nM.
On the same count and under the same terms, the same measure for `COc1ccc(Nc2ccccn2)cc1CSC1CCCC1`: 12600 nM.
Same read-out and setting: the same measure for `Cc1cc2nc(NC(=N)N)nc(C)c2cc1C`: 2510 nM; for `COc1ccc(Cl)cc1NS(=O)(=O)c1ccc(OC)c2c1CC[C@@H](N(C)C)C2`: 79.4 nM.
Still for that read-out and setting: then `COc1ccc(NC(=N)c2cc(Br)cs2)cc1CSC1CCCC1`, with 158 nM.
`N=C(Nc1cccc(CSC2CCCC2)c1)c1cccs1`: the IC50 was 794 nM.
Same read-out and setting: then `C/N=C(/Nc1ccc(OC)c(CSC2CCCC2)c1)c1cccs1`, with 251 nM; and `COc1ccc(NC(=N)c2ccccc2)cc1CCC1CCCC1`, with 316 nM.
On the same count and under the same terms, the same measure for `COc1ccc(NC(=O)c2cccs2)cc1CSC1CCCC1`: 7940 nM; for `COc1ccc(NC(=N)c2nccs2)cc1CSC1CCCC1`: 2510 nM.
For `COc1ccc(NC(=N)c2cccs2)cc1COC1CCCC1`, the IC50 was 2510 nM.
On the same count and under the same terms, then `COc1ccc(NC(=N)c2ccsc2)cc1CSC1CCCC1`, with 100 nM; and `COc1ccc(NC(=N)c2ccccc2)cc1CNC(=O)C1CCCC1`, with 2510 nM; and `C/N=C(\c1cccs1)N(C)c1ccc(OC)c(CSC2CCCC2)c1`, with over 39800 nM.
Same read-out and setting: the same measure for `COc1ccc(NC(=N)c2ccc(Cl)cc2)cc1CSC1CCCC1`: 12.6 nM; for `COc1ccc(NC(=N)c2ccc(Br)s2)cc1CSC1CCCC1`: 20 nM; for `COc1ccc(NC(=N)c2ccccc2)cc1CS(=O)(=O)C1CCCC1`: 31600 nM.
For the molecule `COc1ccc(NC(=N)c2cc(C)cs2)cc1CSC1CCCC1`, the IC50 was 63.1 nM.
For the molecule `COc1ccc(NC(=N)c2ccccc2)cc1C[S+]([O-])C1CCCC1` (centres undefined), the IC50 was over 39800 nM.
Same read-out and setting: then `N=C(Nc1ccc(OC(F)(F)F)c(CSC2CCCC2)c1)c1cccs1`, with 2000 nM.
For `COc1ccc(NC(=N)Cc2ccccc2)cc1CSC1CCCC1`, the IC50 was 6310 nM.
`Cc1ccc(NC(=N)c2cccs2)cc1CSC1CCCC1`: the IC50 was 1580 nM.
Same read-out and setting: then `COc1ccc(NC(=N)c2cccs2)cc1CSC1CCCC1`, with 50.1 nM; and `COc1ccc(NC(=N)c2ccncc2)cc1CSC1CCCC1`, with 1580 nM.
Still for that read-out and setting: the same measure for `CCC(=N)Nc1ccc(OC)c(CSC2CCCC2)c1`: over 39800 nM; for `COc1ccc(NC(=N)c2ccccc2)cc1CSc1ccccc1`: 1580 nM; for `N=C(Nc1ccc(Cl)c(CSC2CCCC2)c1)c1cccs1`: 1000 nM.
Still for that read-out and setting: the same measure for `COc1ccc(C(=N)Nc2ccccc2)cc1CSC1CCCC1`: 1000 nM; for `COc1ccc(NC(=N)c2cccnc2)cc1CSC1CCCC1`: 251 nM.
Consider `COc1ccc(NC(=N)c2ccccc2)cc1CSC1CCCC1`, for which the IC50 was 20 nM.

Tested on in another data set: not listed separately
Briefly: Dissociation constant, pKa of the compound. In kind it is physicochemical.
Details: not given
Broadly, the pKa is the pH at which an ionisable group is half protonated. Read a low pKa as a group that gives up its proton readily. In turn, `Cc1cc2nc(NC(=N)N)nc(C)c2cc1C` had a pKa of 9.3.
Take `COc1ccc(Cl)cc1NS(=O)(=O)c1ccc(OC)c2c1CC[C@@H](N(C)C)C2`: the pKa worked out at 10.5.
Same read-out and setting: the same measure for `COc1ccc(NC(=N)c2cccs2)cc1CSC1CCCC1`: 8.1.

Tested on in a further data set: not listed separately
Briefly: Distribution coefficient, log D of the compound at pH 7.4. As to conditions: octanol/water.
Broadly, the logD is lipophilicity at a set pH, counting ionised and neutral species. A lower logD goes with a more hydrophilic compound. `N=C(Nc1ccc(F)c(CSC2CCCC2)c1)c1cccs1` yielded a logD of over 3.9.
Still for that read-out and setting: then `COc1ccc(Nc2ccccn2)cc1CSC1CCCC1`, with 4.6; and `Cc1cc2nc(NC(=N)N)nc(C)c2cc1C`, with under 0.6; and `COc1ccc(Cl)cc1NS(=O)(=O)c1ccc(OC)c2c1CC[C@@H](N(C)C)C2`, with 2.3.
For `COc1ccc(NC(=N)c2cc(Br)cs2)cc1CSC1CCCC1`, the logD worked out at 4.7.
The same measure, in the same setting: the same measure for `N=C(Nc1cccc(CSC2CCCC2)c1)c1cccs1`: 3.8; for `C/N=C(/Nc1ccc(OC)c(CSC2CCCC2)c1)c1cccs1`: 3.1; for `COc1ccc(NC(=N)c2ccccc2)cc1CCC1CCCC1`: 3.8.
The molecule `COc1ccc(NC(=O)c2cccs2)cc1CSC1CCCC1` returned a logD of over 4.2.
Molecule `COc1ccc(NC(=N)c2nccs2)cc1CSC1CCCC1` showed a logD of 4.
The same measure, in the same setting: then `COc1ccc(NC(=N)c2cccs2)cc1COC1CCCC1`, with 2.7.
Same read-out and setting: then `COc1ccc(NC(=N)c2ccsc2)cc1CSC1CCCC1`, with 2.5; and `COc1ccc(NC(=N)c2ccccc2)cc1CNC(=O)C1CCCC1`, with 1.1; and `C/N=C(\c1cccs1)N(C)c1ccc(OC)c(CSC2CCCC2)c1`, with 1.9.
Take `COc1ccc(NC(=N)c2ccc(Cl)cc2)cc1CSC1CCCC1`: the logD turned out to be 3.7.
Still for that read-out and setting: then `COc1ccc(NC(=N)c2ccc(Br)s2)cc1CSC1CCCC1`, with over 5; and `COc1ccc(NC(=N)c2cc(C)cs2)cc1CSC1CCCC1`, with 3.7; and `COc1ccc(NC(=N)c2ccccc2)cc1C[S+]([O-])C1CCCC1` (centres undefined), with 0.8.
Still for that read-out and setting: then `N=C(Nc1ccc(OC(F)(F)F)c(CSC2CCCC2)c1)c1cccs1`, with over 4.8.
On the same count and under the same terms, the same measure for `COc1ccc(NC(=N)Cc2ccccc2)cc1CSC1CCCC1`: 2.3; for `Cc1ccc(NC(=N)c2cccs2)cc1CSC1CCCC1`: over 3.8; for `COc1ccc(NC(=N)c2cccs2)cc1CSC1CCCC1`: 3.3.
`COc1ccc(NC(=N)c2ccncc2)cc1CSC1CCCC1` gave a logD of 2.9.
On the same count and under the same terms, then `CCC(=N)Nc1ccc(OC)c(CSC2CCCC2)c1`, with 1.2; and `COc1ccc(NC(=N)c2ccccc2)cc1CSc1ccccc1`, with 2.6; and `N=C(Nc1ccc(Cl)c(CSC2CCCC2)c1)c1cccs1`, with 3.9.
The same measure, in the same setting: the same measure for `COc1ccc(C(=N)Nc2ccccc2)cc1CSC1CCCC1`: 2.8; for `COc1ccc(NC(=N)c2cccnc2)cc1CSC1CCCC1`: 2.6.
As for `COc1ccc(NC(=N)c2ccccc2)cc1CSC1CCCC1`, the logD was 2.5.
